Assay results published in patent US12263155B2, “Combinations of monoamine oxidase inhibitors and serotonin receptor agonists and their therapeutic use” (Remedi, Inc., priority 2022, dated 2025).

How the values were obtained:
[1] = target: T1, rat liver MAO-B (Rattus norvegicus, UniProt P19643); experiment: In vitro inhibition of rat liver MAO-B; type: biochemical; conditions: 10 μM [14C]-PEA
T1 construct: from tissue; host or cells: rat liver
T1 sequence (P19643 1-520): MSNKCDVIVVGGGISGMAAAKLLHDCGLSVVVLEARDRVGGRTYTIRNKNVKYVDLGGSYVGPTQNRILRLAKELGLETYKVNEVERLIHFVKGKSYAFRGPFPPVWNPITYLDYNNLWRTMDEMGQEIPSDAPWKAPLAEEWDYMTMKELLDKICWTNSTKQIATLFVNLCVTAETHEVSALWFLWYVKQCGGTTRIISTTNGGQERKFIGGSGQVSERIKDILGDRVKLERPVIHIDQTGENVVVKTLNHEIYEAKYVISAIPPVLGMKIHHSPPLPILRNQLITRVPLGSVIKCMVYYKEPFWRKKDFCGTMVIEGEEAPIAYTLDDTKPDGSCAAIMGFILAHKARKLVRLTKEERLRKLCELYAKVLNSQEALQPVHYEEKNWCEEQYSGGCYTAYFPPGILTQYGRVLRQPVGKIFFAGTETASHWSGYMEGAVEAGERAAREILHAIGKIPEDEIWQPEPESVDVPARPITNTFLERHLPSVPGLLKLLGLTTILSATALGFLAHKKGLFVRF
Description: Methods: The soluble extract of the mitochondrial enriched fraction (P2 pellet), which was prepared from brain homogenates of male Sprague-Dawley rats, served as the source of MAO-A enzymatic activity. The P2 fraction was prepared and was stored frozen until being thawed for use on the day of assay. Final concentrations of 50 μM [^14C]-serotonin (5-HT) and 10 μM [^14C]-phenylethylamine (PEA) were employed as specific substrates for MAO-A and MAO-B, respectively. Test compound inhibition was based on competition for oxidation of these radio-labeled substrates. MAO-A assay specificity was enhanced by inclusion of 0.1 μM deprenyl to prevent substrate oxidation by MAO-B. Likewise, MAO-B assays included 0.1 μM clorgyline to block MAO-A activity. […] Inhibition of enzymatic activities was expressed as IC50 and as the Ki, which was calculated using the Cheng-Prusoff equation.

[2] = target: T2, MAO-A from human brain striatum (Homo sapiens, UniProt P21397); experiment: Inhibitory kinetics of human brain striatum MAO-A; type: biochemical; conditions: for Vmax: [14C]-5-HT substrate
T2 construct: homogenates of a post-mortem sample of the human brain striatum, served as the source of MAO-A enzymatic activity; from tissue; host or cells: human brain striatum, post-mortem (P2 mitochondrial-enriched fraction)
T2 sequence (P21397 1-527): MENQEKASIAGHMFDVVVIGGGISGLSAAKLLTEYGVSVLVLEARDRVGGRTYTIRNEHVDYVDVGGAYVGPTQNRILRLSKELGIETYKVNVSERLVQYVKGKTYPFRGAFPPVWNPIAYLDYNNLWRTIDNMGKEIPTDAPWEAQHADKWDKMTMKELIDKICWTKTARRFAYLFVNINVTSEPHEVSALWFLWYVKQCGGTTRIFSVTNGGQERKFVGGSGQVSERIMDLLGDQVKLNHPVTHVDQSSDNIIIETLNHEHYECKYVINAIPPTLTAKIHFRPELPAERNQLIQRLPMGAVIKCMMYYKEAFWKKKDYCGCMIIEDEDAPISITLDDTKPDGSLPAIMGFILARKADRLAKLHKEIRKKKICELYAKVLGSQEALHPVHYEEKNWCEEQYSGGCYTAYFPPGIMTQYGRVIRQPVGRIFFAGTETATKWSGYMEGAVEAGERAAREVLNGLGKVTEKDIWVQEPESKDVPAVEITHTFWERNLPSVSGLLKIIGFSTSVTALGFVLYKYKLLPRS
Description: Methods: The soluble extract of the mitochondrial enriched fraction (P2 pellet), which was prepared from homogenates of a post-mortem sample of the human brain striatum, served as the source of MAO-A enzymatic activity for this assay. After preparation, the P2 fraction was stored frozen until it was thawed for use on the day of assay. […] The MAO-A assay specificity was enhanced by inclusion of 0.1 μM deprenyl to prevent substrate oxidation by MAO-B. The CX157 competition for MAO-A activity was measured using either 1.0 nM or 5.0 nM CX157 against the 2 log unit concentration range of [^14C]-5-HT. The reference standard, RO 41-1049, was tested at 10 μM. Deprenyl (0.1 μM) was included in all MAO-A assays to prevent any potential for MAO-B mediated oxidation of the [^14C]-5-HT substrate. […] The MAO-A assays were performed using CX157 at concentrations of 0 nM (as a positive control), 1 nM and 5 nM. The Km and Vmax values were calculated from Lineweaver-Burke plots.

[3] = Description: Methods: The trial was a Phase 1, single center, double-blind, placebo-controlled, sequential group, acute dose escalation study of the safety and pharmacokinetics of seven (7) CX157 dose levels in healthy male volunteers. Each of the seven (7) dose groups consisted of six (6) subjects, with the exception of cohort 2 (CX157 10 mg or placebo) which enrolled only five (5) subjects. Within each dose group, four (4) subjects were randomized to CX157 and two (2) subjects to placebo. Subjects were normal healthy volunteers confined to the study center for approximately 4 days, beginning approximately 16 hours before exposure to study drug and ending approximately 48 hours after exposure to study drug. Safety and tolerability was assessed for each dose group by the Principal Investigator before advancing to the next scheduled dose group. CX157 was administered as a fully solubilized microemulsion in Labrasol™
[4] = target: T3, MAO-A (Homo sapiens, UniProt P21397); conditions: cited from earlier work
T3 sequence (P21397 1-527): T2 sequence (P21397 1-527)

## O=S1(=O)c2ccc(F)cc2Oc2cc(OCC(F)(F)F)ccc21 [CX157, 3-fluoro-7(2,2,2-trifluorethoxy)phenoxathiine-10,10-dioxide]
[1]
  inhibition of rat liver MAO-B: did not inhibit
[2]; 5.0 nM CX157
  increase of Km of the enzyme for [14C]-5-HT: 34.6%
[2]; 1 nM CX157
  Vmax: 50777
[2]; 5 nM CX157
  Vmax: 59161
[2]; human brain striatum
  mode of MAO-A inhibition: competitive inhibitor
[2]; human brain striatum homogenate, from plot of Km values
  Ki: 10 nM
[3]; all CX157 groups, single doses
  percent of subjects experiencing adverse events: 89%
[3]; healthy volunteers, single dose escalation
  safety and tolerability: safe and well tolerated
[4]
  potency for MAO-A inhibition relative to moclobemide: more than 100 times
